As usually defined, the IC50 is the point on the concentration scale where inhibition reaches its midpoint. A higher IC50 goes with weaker potency in that assay.

The record followed here is patent US20240101589A1, “INHIBITORS OF METTL3” (Strom Therapeutics Limited, priority 2020, published 2024).

For the first experiment, the system named is KASUMI-1 cells. The experiment can be described thus: Kasumi cell proliferation CTG. The format is cell-based. To be noted: Homo sapiens, Kasumi 1, 120 h, treated for 120 hours, CellTiter-Glo. How it is done:
Cell culture: KASUMI-1 cells (ACC20, Leibniz-Institut DSMZ Deutsche Sammlung von Mikroorganismen und Zellkulturen GmbH) were grown in RPMI 1640 (31870-025, Gibco) supplemented with 20% fetal bovine serum (F1524, Gibco), 1 mM sodium pyruvate (11360-039, Gibco) and 2 mM Glutamax (35050-038, Gibco) in a 5% CO2 humidified incubator at 37° C.
Cell treatment and cell growth assessment: KASUMI-1 cells were seeded in ultra-low attachment 384-well culture plate (MS-9384WZ, SBio) at a final concentration of 250 000 cells/ml (35 μL/well) and treated for 120 hours with compounds inhibiting the METTL3/14 activity (10 serial semi-log dilutions, 30 μM as top concentration). Upon treatment, Kasumi1 cells were incubated for 10 min at RT with the CellTiter-Glo reagent (G7571, Promega). Measurement of the luminescence signal was performed on a microplate reader (Ensight, PerkinElmer).
For orientation: In ATP-based viability assays light output follows the ATP content of the culture.
With `Nc1ncnc2c1c(Br)cn2[C@@H]1O[C@H](/C=C/CCCNCC2CC(F)(F)C2)[C@@H](O)[C@H]1O` [Example 4, (2R,3R,4S,5R)-2-{4-amino-5-bromo-7H-pyrrolo[2,3-d]pyrimidin-7-yl}-5-[(1E)-5-{[(3,3-difluorocyclobutyl)methyl]amino}pent-1-en-1-yl]oxolane-3,4-diol], the IC50 stood at 4800 nM.
On the same count and under the same terms, for `Nc1ncnc2c1c(Br)cn2[C@@H]1O[C@H](/C=C/C2CC(N)C2)[C@@H](O)[C@H]1O` (stereo partly drawn) [Example 17, (2R,3R,4S,5R)-2-{4-amino-5-bromo-7H-pyrrolo[2,3-d]pyrimidin-7-yl}-5-[(1E)-2-(3-aminocyclobutyl)ethenyl]oxolane-3,4-diol] the value was 12400 nM.

Staying with this experiment, now noted: treated for 120 hours, CellTiter-Glo.
In turn, `Nc1ncnc2c1c(Br)cn2[C@@H]1O[C@H](/C=C/CCCNCc2ccccc2)[C@@H](O)[C@H]1O` [Example 1, (2R,3R,4S,5R)-2-(4-amino-5-bromo-7H-pyrrolo[2,3-d]pyrimidin-7-yl)-5-((E)-5-(benzylamino)pent-1-en-1-yl)tetrahydrofuran-3,4-diol] gave an IC50 of 4900 nM.

The next experiment deals with METTL3/14 (Homo sapiens (Human), UniProt Q86U44). Put plainly: METTL3/14 methyltransferase assay (RapidFire mass spectrometry, RFMS). The format is biochemical. To be noted: 5 nM METTL3/14, 0.2 μM RNA substrate, 0.5 μM SAM, 60 minutes at room temperature. How it is done: The enzymatic assay was established to determine IC50 values for inhibition of RNA methyltransferase activity. The enzyme used was full-length his-tagged METTL3 co-expressed with full length FLAG-tagged METTL14 in a baculovirus expression system. Enzymatic reactions were performed at room temperature in 384-well plates using a final reaction volume of 20 μL containing 20 mM TrisCl pH 7.6, 1 mM DTT, 0.01% Tween-20. 5 nM final concentration of METTL3/14 was pre-incubated with various compound concentrations for 10 minutes, followed by addition of 0.2 μM final concentration synthetic RNA substrate (5′P-[…]-3′) and 0.5 μM final concentration S-adenosyl-methionine (SAM). The reaction was incubated for a further 60 minutes at room temperature, and then quenched by the addition of 40 μL 7.5% TCA with two internal product standards (D4-SAH and 13C10-SAH). After termination, plates were sealed, centrifuged and stored at 4° C. until analysis.
Chain of METTL3/14 (Q86U44 whole entry): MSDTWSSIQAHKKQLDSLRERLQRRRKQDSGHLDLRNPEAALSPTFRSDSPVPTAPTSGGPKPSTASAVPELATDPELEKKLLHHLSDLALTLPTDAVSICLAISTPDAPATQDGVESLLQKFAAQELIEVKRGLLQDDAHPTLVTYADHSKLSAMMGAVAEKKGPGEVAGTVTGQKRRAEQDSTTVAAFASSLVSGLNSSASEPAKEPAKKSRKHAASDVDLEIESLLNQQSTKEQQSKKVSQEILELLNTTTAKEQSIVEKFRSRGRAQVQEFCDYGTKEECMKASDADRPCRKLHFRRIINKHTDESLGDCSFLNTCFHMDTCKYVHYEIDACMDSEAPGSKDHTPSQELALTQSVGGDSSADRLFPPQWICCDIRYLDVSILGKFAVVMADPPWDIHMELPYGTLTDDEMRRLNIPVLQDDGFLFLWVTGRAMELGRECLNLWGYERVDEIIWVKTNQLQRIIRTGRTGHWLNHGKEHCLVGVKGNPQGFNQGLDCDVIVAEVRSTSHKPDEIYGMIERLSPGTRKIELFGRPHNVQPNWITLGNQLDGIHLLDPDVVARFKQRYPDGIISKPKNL
Chain of METTL3/14 (Q9HCE5 whole entry partner): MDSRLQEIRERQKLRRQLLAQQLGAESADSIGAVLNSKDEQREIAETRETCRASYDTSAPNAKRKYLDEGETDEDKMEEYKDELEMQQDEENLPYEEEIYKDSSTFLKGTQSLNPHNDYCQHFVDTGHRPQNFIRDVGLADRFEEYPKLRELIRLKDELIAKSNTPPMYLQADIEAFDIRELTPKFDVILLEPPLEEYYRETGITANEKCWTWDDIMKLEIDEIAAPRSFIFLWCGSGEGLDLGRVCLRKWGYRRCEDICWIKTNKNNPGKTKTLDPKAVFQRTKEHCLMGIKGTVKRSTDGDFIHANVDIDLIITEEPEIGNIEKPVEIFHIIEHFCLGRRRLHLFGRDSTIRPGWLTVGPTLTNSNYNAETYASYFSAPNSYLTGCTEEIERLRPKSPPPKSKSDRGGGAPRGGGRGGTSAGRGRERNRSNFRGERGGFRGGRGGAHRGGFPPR
RNA methyltransferase activity was measured label free using the RapidFire™ mass spectrometry (RF/MS) platform. Stopped and stable assay plates were analyzed on the Agilent RF300 integrated autosampler/solid-phase extraction (SPE) system coupled to an ABSciex 4000 mass spectrometer for the generation of the product S-adenosyl homocysteine (SAH) and normalized to the ratio of signal of the two internal product standards, respectively. Solvent A was water containing 0.1% (v/v) TCA. Solvent B was acetonitrile/0.1% ammonium acetate (8:2, v/v). More specifically, plates were centrifuged at 4350 rpm for 10 min, samples were aspirated under vacuum for 600 ms, then loaded onto a C18 solid-phase extraction cartridge and washed for 3 s with solvent A at a flow rate of 1.5 mL/min. Retained product and internal standards were eluted with solvent B at a flow rate of 1 mL/min for 3 s and finally the cartridge was re-equilibrated with solvent A for 500 ms. The mass transition for the product (SAH) was 384.9/135.9 Da. Transitions of the two internal product standards (IS1: D4-SAH and IS2: 13C10-SAH) were 389.1/135.8 Da and 395.0/134.2 Da, respectively. Ratios of SAH/IS1 and SAH/IS2 were used for normalization of matrix effects. IC50 values were calculated based on dilution series of individual compounds. Potency of a compound was measured at varied inhibitor concentrations and normalized to control wells without RNA substrate and without inhibition (DMSO only).
For the compound `Nc1ncnc2c1c(Br)cn2[C@@H]1O[C@H](/C=C/CCCNCc2ccccc2)[C@@H](O)[C@H]1O` [Example 1, (2R,3R,4S,5R)-2-(4-amino-5-bromo-7H-pyrrolo[2,3-d]pyrimidin-7-yl)-5-((E)-5-(benzylamino)pent-1-en-1-yl)tetrahydrofuran-3,4-diol], the IC50 came out at 44.8 nM.
On the same count and under the same terms, to `Nc1ncnc2c1c(Br)cn2[C@@H]1O[C@H](/C=C/CCNCc2ccccc2)[C@@H](O)[C@H]1O` [Example 3, (2R,3R,4S,5R)-2-{4-amino-5-bromo-7H-pyrrolo[2,3-d]pyrimidin-7-yl}-5-[(1E)-4-(benzylamino)but-1-en-1-yl]oxolane-3,4-diol] belongs 317 nM; to `NCC/C=C/[C@H]1O[C@@H](n2cc(Br)c3c(N)ncnc32)[C@H](O)[C@@H]1O` [Example 7, (2R,3R,4S,5R)-2-{4-amino-5-bromo-7H-pyrrolo[2,3-d]pyrimidin-7-yl}-5-[(1E)-4-aminobut-1-en-1-yl]oxolane-3,4-diol], 568 nM; to `NCCC/C=C/[C@H]1O[C@@H](n2cc(Br)c3c(N)ncnc32)[C@H](O)[C@@H]1O` [Example 8, (2R,3R,4S,5R)-2-{4-amino-5-bromo-7H-pyrrolo[2,3-d]pyrimidin-7-yl}-5-[(1E)-5-aminopent-1-en-1-yl]oxolane-3,4-diol], 505 nM.
On the same count and under the same terms, to `Nc1ncnc2c1c(Br)cn2[C@@H]1O[C@H](/C=C/C2CNC2)[C@@H](O)[C@H]1O` [Example 13, (2R,3R,4S,5R)-2-{4-amino-5-bromo-7H-pyrrolo[2,3-d]pyrimidin-7-yl}-5-[(1E)-2-(azetidin-3-yl)ethenyl]oxolane-3,4-diol] belongs 460 nM.
The same measure, in the same setting: for `Nc1ncnc2c1c(Br)cn2[C@@H]1O[C@H](/C=C/C2CCNCC2)[C@@H](O)[C@H]1O` [Example 14, (2R,3R,4S,5R)-2-{4-amino-5-bromo-7H-pyrrolo[2,3-d]pyrimidin-7-yl}-5-[(1E)-2-(piperidin-4-yl)ethenyl]oxolane-3,4-diol] the value was 413 nM.
`Nc1ncnc2c1c(Br)cn2[C@@H]1O[C@H](/C=C/C2CCCNC2)[C@@H](O)[C@H]1O` (stereo partly drawn) [Example 15, (2R,3R,4S,5R)-2-{4-amino-5-bromo-7H-pyrrolo[2,3-d]pyrimidin-7-yl}-5-[(1E)-2-(piperidin-3-yl)ethenyl]oxolane-3,4-diol] had an IC50 of 351 nM.
Turning to `Nc1ncnc2c1c(Br)cn2[C@@H]1O[C@H](/C=C/C2CCNC2)[C@@H](O)[C@H]1O` (stereo partly drawn) [Example 16, (2R,3R,4S,5R)-2-{4-amino-5-bromo-7H-pyrrolo[2,3-d]pyrimidin-7-yl}-5-[(1E)-2-(pyrrolidin-3-yl)ethenyl]oxolane-3,4-diol], the IC50 is 453 nM.
Still for that read-out and setting: to `Nc1ncnc2c1c(Br)cn2[C@@H]1O[C@H](/C=C/C2CC(N)C2)[C@@H](O)[C@H]1O` (stereo partly drawn) [Example 17, (2R,3R,4S,5R)-2-{4-amino-5-bromo-7H-pyrrolo[2,3-d]pyrimidin-7-yl}-5-[(1E)-2-(3-aminocyclobutyl)ethenyl]oxolane-3,4-diol] belongs 1310 nM.
Same read-out and setting: to `Nc1ncnc2c1c(Br)cn2[C@@H]1O[C@H](/C=C/C2COC2)[C@@H](O)[C@H]1O` [Example 18, (2R,3R,4S,5R)-2-{4-amino-5-bromo-7H-pyrrolo[2,3-d]pyrimidin-7-yl}-5-[(1E)-2-(oxetan-3-yl)ethenyl]oxolane-3,4-diol] belongs 2930 nM; to `Nc1ncnc2c1c(Br)cn2[C@@H]1O[C@H](/C=C/CC2CNC2)[C@@H](O)[C@H]1O` [Example 19, (2R,3R,4S,5R)-2-{4-amino-5-bromo-7H-pyrrolo[2,3-d]pyrimidin-7-yl}-5-[(1E)-3-(azetidin-3-yl)prop-1-en-1-yl]oxolane-3,4-diol], 522 nM; to `Nc1ncnc2c1c(Br)cn2[C@@H]1O[C@H](/C=C/CCCN2CCC(F)(F)CC2)[C@@H](O)[C@H]1O` [Example 23, (2R,3R,4S,5R)-2-{4-amino-5-bromo-7H-pyrrolo[2,3-d]pyrimidin-7-yl}-5-[(1E)-5-(4,4-difluoropiperidin-1-yl)pent-1-en-1-yl]oxolane-3,4-diol], 63.5 nM.
Still for that read-out and setting: for `Nc1ncnc2c1c(Br)cn2[C@@H]1O[C@H](/C=C/CCCN2CCC(F)CC2)[C@@H](O)[C@H]1O` [Example 24, (2R,3R,4S,5R)-2-{4-amino-5-bromo-7H-pyrrolo[2,3-d]pyrimidin-7-yl}-5-[(1E)-5-(4-fluoropiperidin-1-yl)pent-1-en-1-yl]oxolane-3,4-diol] the value was 231 nM; for `Nc1ncnc2c1c(Br)cn2[C@@H]1O[C@H](/C=C/CCCN2CCOCC2)[C@@H](O)[C@H]1O` [Example 25, (2R,3R,4S,5R)-2-{4-amino-5-bromo-7H-pyrrolo[2,3-d]pyrimidin-7-yl}-5-[(1E)-5-(morpholin-4-yl)pent-1-en-1-yl]oxolane-3,4-diol], 1090 nM; for `Nc1ncnc2c1c(Br)cn2[C@@H]1O[C@H](/C=C/CCCN2CCCC(F)C2)[C@@H](O)[C@H]1O` (stereo partly drawn) [Example 26, (2R,3R,4S,5R)-2-{4-amino-5-bromo-7H-pyrrolo[2,3-d]pyrimidin-7-yl}-5-[(1E)-5-(3-fluoropiperidin-1-yl)pent-1-en-1-yl]oxolane-3,4-diol], 351 nM.
In turn, `Nc1ncnc2c1c(Br)cn2[C@@H]1O[C@H](/C=C/CCCNCC23CC(F)(C2)C3)C[C@H]1O` [Example 27, (2R,3R,5S)-2-{4-amino-5-bromo-7H-pyrrolo[2,3-d]pyrimidin-7-yl}-5-[(1E)-5-[({3-fluorobicyclo[1.1.1]pentan-1-yl}methyl)amino]pent-1-en-1-yl]oxolan-3-ol] gave an IC50 of 9.6 nM.
On the same count and under the same terms, for `Nc1ncnc2c1c(Br)cn2[C@@H]1O[C@H](/C=C/CCCNCC23CC(F)(C2)C3)[C@H](F)[C@H]1O` [Example 28, (2R,3S,4R,5R)-2-{4-amino-5-bromo-7H-pyrrolo[2,3-d]pyrimidin-7-yl}-4-fluoro-5-[(1E)-5-[({3-fluorobicyclo[1.1.1]pentan-1-yl}methyl)amino]pent-1-en-1-yl]oxolan-3-ol] the value was 19.7 nM; for `Nc1ncnc2c1c(Br)cn2[C@@H]1C[C@H](c2cccc(C(=O)NCC34CC(F)(C3)C4)c2)[C@@H](O)[C@H]1O` [Example 40, 3-[(1R,2R,3S,4R)-4-{4-amino-5-bromo-7H-pyrrolo[2,3-d]pyrimidin-7-yl}-2,3-dihydroxycyclopentyl]-N-({3-fluorobicyclo[1.1.1]pentan-1-yl}methyl)benzamide], 7930 nM; for `Nc1ncnc2c1c(Br)cn2[C@@H]1O[C@H](/C=C/CCCNCC23CC(F)(C2)C3)[C@@H](O)[C@H]1F` [Example 41, (2R,3R,4R,5R)-5-{4-amino-5-bromo-7H-pyrrolo[2,3-d]pyrimidin-7-yl}-4-fluoro-2-[(1E)-5-[({3-fluorobicyclo[1.1.1]pentan-1-yl}methyl)amino]pent-1-en-1-yl]oxolan-3-ol], 60 nM.
